The text below walks through data of publication PMC3283556, “The Activities of Current Antimalarial Drugs on the Life Cycle Stages of Plasmodium: A Comparative Study with Human and Rodent Parasites” (PLoS Medicine, 2012).

The subject of data set [1] is P. yoelii liver stage parasites (liver schizonts). The experiment in a line: P. yoelii liver stage assay in HepG2 cells (EEF immunofluorescence). Type of data set: cell-based, Plasmodium yoelii. As to conditions: Plasmodium yoelii. On the procedure:
(§1) 7.5×10^3 HepG2 cells in 50 µl of medium (1.5×10^5 cells/ml) were seeded in 384 well plates (Aurora 384 IQ-EB Black/Clear Plates) 20–26 h prior to the actual infection. 2 h prior to infection, 50 nl of compound in DMSO (0.1% final DMSO concentration per well) were transferred with a PinTool (GNF Systems) into the assay plates (10 µM final concentration). P. yoelii sporozoites were freshly dissected from infected A. stephensi mosquito salivary glands and filtered twice with a 40-µm strainer. The HepG2 cells were then infected with 8×10^3 sporozoites per well. After infection and 1-h incubation at 37°C, the cultures were washed, new media and compound added, and further incubated with 5-fold increased concentration of penicillin/streptomycin for 48 h at 37°C before exoerythrocytic forms (EEFs) quantification of infected cells by immunofluorescence.
After washing with 1×PBS and fixation of the cells with 4% paraformaldehyde solution (EMS), membranes were permeabilised with 0.5% Triton-X-100 (Thermo Fisher Scientific) and EEFs were stained using a mouse polyclonal serum raised against the Plasmodium heat shock protein 70 (HSP70), an Alexa goat antimouse IgG, Fca-specific DyLight 649 secondary antibody (Invitrogen), and the Hoechst 33342 nucleic acid dye (Invitrogen). Stained EEFs were then quantified using the Opera Confocal High Content Screening system (PerkinElmer). Images were collected using a 20× magnification at a binning of 2 using a 365 Xeon arc lamp illumination to detect the nuclei and 635-nm laser line to excite DyLight649.
(§2) High-content imaging of infected HepG2-CD81 cells was performed as described in Meister et al.. Wells were analysed using a custom Acapella (PerkinElmer) script parameterized for this assay. In brief, images from fields inside the well were first discarded as out of focus when the intensity in the nuclear area was too low. Then hepatic cells were counted by detecting the nuclei labelled with Hoechst 33342 and parasites were segmented using the HSP70 immuno-labelling. Morphology-based (e.g., area, roundness) and intensity-based features were calculated for each object detected including the hepatocyte nuclei and the parasites. Parasitemia was set as the ratio between parasite number (Alexa fluor positive) and the hepatocyte nuclei count, determined at the same time.
(§3) When an infected mosquito bites a host, ∼100 sporozoites may be injected into the dermis from where they rapidly invade liver cells,[33]. This infective step represents the second bottleneck during transmission and therefore another potentially vulnerable point for intervention. In the absence of a practical liver stage assay measuring the formation of P. falciparum/P. vivax liver schizonts, an equivalent assay was developed in P. yoelii and used to assess the activity of the collection of molecules against this specific stage. Specifically, P. yoelii sporozoites were dissected from the salivary glands of infected mosquitoes and were allowed to invade human hepatocarcinoma cells expressing the CD81 protein. The development of the liver schizonts was monitored by immunofluorescence staining using an HSP70 antibody specific to the parasite (Figure 4A).
Figure 4 Validation and results of anti-infectives tested against P. yoelii liver stage parasites. (A) Opera-generated images from a time point experiment using a 20× objective lens. P. yoelii parasites (red) were visualized using a mouse polyclonal HSP70 antibody, and the HepG2 cells (green) were stained with Hoechst 33342 nucleic acid dye. […] (B) A dose response plot with atovaquone from data generated from the Opera imaging system. The median areas of compound-treated parasites were compared to untreated DMSO controls to determine the degree of inhibition.

Details of data set [2]: method as in PMID 22759078, PMID 17053895, PMID 18694333, PMID 18840754, PMID 19776738. Particulars: human blood, therapeutic / relevant doses; cited from earlier work.
Data set [3] has as its system P. falciparum asexual blood stage parasites (strains NF54, D6, K1, W2, 7G8, TM90C2A, V1/S). The experiment in a line: [3H]-hypoxanthine incorporation growth inhibition assay, asexual blood stage. The class given is cell-based, Plasmodium falciparum. On the procedure:
In vitro antimalarial activity was measured using the [^3H]-hypoxanthine incorporation assay with various strains of P. falciparum obtained from MR4. Results were expressed as the concentration resulting in 50% inhibition (IC50).
The half-maximal inhibitory concentrations (IC50) were determined for each molecule (Table S2).
Figure 2 The potencies of selected antimalarials against asexual blood stages. Main classes of antimalarials were tested against the blood stage of seven Plasmodium falciparum strains in the [^3H]hypoxanthine incorporation assay as described in Vennerstrom et al.. The strains tested here (obtained from MR4) were two drug-sensitive strains NF54 and D6 and five drug-resistant strains: K1, resistant to chloroquine (CQ) and pyrimethamine (PYR), origin Thailand, carries mutations in genes pfmdr1, pfcrt, pfdhfr, pfdhps; W2, resistant to CQ, PYR, quinine, cycloguanil, and sulfadoxine, origin Vietnam; 7G8, resistant to CQ and PYR, origin Brazil; TM90C2A, resistant to CQ, PYR, and MFQ, origin Thailand; and V1/S, resistant to CQ, PYR and cycloguanil, origin Vietnam. Results are expressed as the concentration resulting in 50% growth inhibition (IC50).Values are means of ≥3 independent experiments. (A) Endoperoxides. (B) 4-AQs. (C) 8-AQs and amino alcohols. (D) Antifolates, antibiotics, and others.

For data set [4], the system named is P. berghei ookinete formation. As to the kind of experiment: P. berghei ookinete development assay. As to conditions: Plasmodium berghei; medium throughput fluorescent ookinete assay. The class given is cell-based.
The subject of data set [5] is P. berghei ookinete formation. As to the kind of experiment: P. berghei ookinete development assay. As to conditions: for effect on ookinete formation: 10 µM; for inhibition at 10 µM: Plasmodium berghei, box linked to ookinete, read-out: Inhibition at 10 μM (ookinete, Figure 5). The class given is cell-based, Plasmodium berghei. On the procedure: Compounds and P. berghei gametocyte-infected blood were dispensed in a 96-well plate containing ookinete medium. After 24 h at 19°C, Giemsa-stained ookinetes were counted under the microscope (×40) as previously described,[28].
(§4) Figure 3 The transmission-blocking potential of selected antimalarials in three bioassays that cover different phases of Plasmodium vector stage development. (A) Assays examined exflagellation (P. falciparum), ookinete formation (P. berghei), or oocyst formation (P. falciparum). All antimalarials were screened at 10 µM. (B) The biological content of the in vitro P. berghei ookinete assay spans gamete formation, fertilization, zygote development, and ookinete formation. Ookinete formation was insensitive to most of the antimalarials tested. […] (D) The in vitro P. falciparum exflagellation assay exposes mature gametocytes to antimalarials for 24 h before triggering exflagellation. […] All experiments in triplicate. (E) The in vivo P. falciparum oocyst assay differs from the P. berghei oocyst assay in that mature gametocytes were exposed to the antimalarials in culture for 24 h before feeding to mosquitoes. […] NPC1161-B, lumefantrine, halofantrine, and mefloquine +RS isomer were also active. (n = 4–61 observations; average ± standard error of the mean [SEM]).

Data set [6] relates to P. falciparum oocyst formation. As to the kind of experiment: Standard membrane feed assay, P. falciparum oocysts in A. stephensi. Type of data set: in vivo, Plasmodium falciparum. Particulars: 10 µM, gametocytes exposed 24 h before feeding. On the procedure:
Gametocyte cultures were produced according to the same protocol as the Pf exflagellation assay. Pooled gametocyte cultures were evenly divided between compounds in fresh medium and incubated at 37°C for 24 h. The parasite pellets were then resuspended in fresh RBCs and human serum treated with the compounds to a 50% haematocrit and immediately fed to mosquitoes as described above and then maintained at 27°C/60%RH for 10–12 d before dissection and counting.
as §4

Data set [7] has as its system P. falciparum mature gametocytes / male gamete exflagellation. The experiment in a line: P. falciparum exflagellation assay. As to conditions: for inhibition at 10 µM: Plasmodium falciparum. The class given is cell-based, Plasmodium falciparum. On the procedure: After 24 h, exflagellation was triggered by a temperature decrease to ∼21°C and observed 20 min later under the microscope. Highly motile exflagellation centres were recorded for ∼50–150 adjacent fields of view and reported per 10,000 RBCs.
(A) Assays examined exflagellation (P. falciparum), ookinete formation (P. berghei), or oocyst formation (P. falciparum). All antimalarials were screened at 10 µM. (B) The biological content of the in vitro P. berghei ookinete assay spans gamete formation, fertilization, zygote development, and ookinete formation. […] (D) The in vitro P. falciparum exflagellation assay exposes mature gametocytes to antimalarials for 24 h before triggering exflagellation. […] All experiments in triplicate. (E) The in vivo P. falciparum oocyst assay differs from the P. berghei oocyst assay in that mature gametocytes were exposed to the antimalarials in culture for 24 h before feeding to mosquitoes.

For another data set, the system named is Plasmodium oocysts. The experiment in a line: Oocyst development / sporogony, Plasmodium species not stated at the place. Type of data set: in vivo. As to conditions: Plasmodium; 10 μM; box linked to oocysts; read-out: Inhibition at 10 μM (oocysts, Figure 5). On the procedure: (§5) Membrane feeds were performed as described previously. Briefly, PbGFPcon-infected mouse blood was mixed with compounds, immediately placed into membrane feeders (39°C) and offered for 30 min to 80–100 overnight-starved A. stephensi (SDA 500 strain). After 7–9 d at 19°C/80%RH, mosquito midguts were dissected out. Midguts were fixed with paraformaldehyde and oocyst number was determined microscopically by semi-automated analysis as previously described.
Gametocyte cultures were produced according to the same protocol as the Pf exflagellation assay. Pooled gametocyte cultures were evenly divided between compounds in fresh medium and incubated at 37°C for 24 h. The parasite pellets were then resuspended in fresh RBCs and human serum treated with the compounds to a 50% haematocrit and immediately fed to mosquitoes as described above and then maintained at 27°C/60%RH for 10–12 d before dissection and counting. […]

For data set [8], the system named is P. berghei oocyst formation. As to the kind of experiment: Standard membrane feed assay, P. berghei oocysts in A. stephensi. Type of data set: in vivo, Plasmodium berghei. As to conditions: 10 µM. On the procedure: as §5
Supplementary file pmed.1001169.s001.tif: Figure S1 The transmission-blocking potential of selected compounds against P. berghei in standard membrane feeding assays. All antimalarials were screened at 10 µM in triplicate in independent experiments. The biological content of this assay spans gamete formation through to occyst development all within the gut of the mosquito. […] (TIF) Click here for additional data file.

A further data set deals with HepG2 cells. As to the kind of experiment: Growth retardation of HepG2 cells. As to the method: as §1, §2, §3
[9] abbreviates: HepG2, box linked to liver schizont, read-out: IC50 (liver schizont, Figure 5).
The mark [10] stands for this setting: Plasmodium falciparum, Erythrocyte, box linked to blood stage schizont, read-out: IC50 (erythrocyte schizont, Figure 5).
The mark [11] stands for this setting: read-out: inhibition of exflagellation, 10 µM, 24 h exposure of mature gametocytes.
[12] abbreviates: 10 μM, box linked to gametocytes/exflagellation, read-out: Inhibition at 10 μM (gametocytes/exflagellation, Figure 5).

Read-outs that look alike come from different tables or passages of the source.

As to `CO[C@H]1O[C@@H]2O[C@@]3(C)CC[C@H]4[C@H](C)CC[C@@H]([C@H]1C)[C@@]24OO3` [artemether], the IC50 (usually the point on the concentration scale where inhibition reaches its midpoint) in data set [1] (setting [9]) is under 1000 nM. In addition, in data set [2], the Cmax (usually the highest concentration seen after dosing) was 100 nM.
Take `O=C1C(O)=C([C@H]2CC[C@H](c3ccc(Cl)cc3)CC2)C(=O)c2ccccc21` [atovaquone]: the 50% inhibitory concentration (IC50) in [1] (setting [9]) is under 1000 nM; in data set [3] (setting [10]), under 1 nM; in [4] it was 65 nM. Also, the “potency range against blood stages” value in data set [3] (P. falciparum blood stages) was “subnanomolar range”. For the same compound, the “fold difference in potency between strains” value in data set [3] (between the strains D6 and V1/S) is reported as at most 10 fold. Moreover, in data set [5], the “effect on ookinete formation” value is given as “strongly inhibited ookinete formation”. In addition, the inhibition at 10 µM in data set [5] was over 80%.
Take `OC(c1cc(C(F)(F)F)nc2c(C(F)(F)F)cccc12)C1CCCCN1` (stereo not shown) [mefloquine (+RS)]: the half-inhibitory concentration (IC50) in [3] (strain not specified) was under 10 nM. For the same compound, the figures for the “transmission-blocking effect on P. falciparum oocysts (words)” value in data set [6] and in data set [6] (listed as mefloquine +RS isomer) were “totally blocked transmission” and “active”, respectively. Besides, the values for the inhibition at 10 µM (in data set [7] (setting [11]); in [7] (setting [12]); with Plasmodium oocysts) were over 80%, over 60% and over 90%, respectively.
Turning to `CCc1nc(N)nc(N)c1-c1ccc(Cl)cc1` [pyrimethamine], the “transmission-blocking effect on P. berghei oocysts (words)” value in data set [8] is on record as “most notable transmission-blocking activity”. For the same compound, the IC50 in [1] (setting [9]) was under 1000 nM; in [1] (HepG2, dose response, median parasite area (Opera), read-out: IC50 liver stage), under 10 nM; in [3] (setting [10]) it was under 20 nM. Further, in data set [3] (drug-resistant strains), the “resistance / retention of potency against resistant strains” value is “Resistance to pyrimethamine was verified in all drug-resistant strains”. The “effect on ookinete formation” value in [5] is “strongly inhibited ookinete formation”. The inhibition at 10 µM is over 80% in data set [5], over 80% in data set [7] (setting [11]) and over 90% with Plasmodium oocysts.
In the case of `COc1ccc2nc3cc(Cl)ccc3c(Nc3cc(CN4CCCC4)c(O)c(CN4CCCC4)c3)c2n1` [pyronaridine], the IC50 with HepG2 cells (Homo sapiens, HepG2, read-out: IC50 HepG2) is under 170 nM; in data set [1] (setting [9]) it was under 1000 nM; in data set [1] (HepG2, development of P. yoelii liver schizonts following infection of HepG2 cells, read-out: IC50 Parasite), 270 ± 130 nM; in [1] (HepG2, dose response, read-out: IC50 liver stage), under 3000 nM; in data set [3] (Plasmodium falciparum, asexual blood stage, all parasite lines), 2 to 10 nM; in data set [4], 6000 nM. In addition, the “CI (cytotoxicity index)” value with HepG2 cells (IC50 HepG2 compared to IC50 parasite) is reported as under 0.63. Besides, the “effect on ookinete formation” value in [5] is reported as “strongly inhibited ookinete formation”. Also, the values for the inhibition at 10 µM in data set [5], in data set [7] (setting [11]) and in [7] (setting [12]) were over 80%, over 80% and over 60%, respectively. Besides, the “effect on exflagellation (words)” value in data set [7] (10 µM, 24 h exposure of mature gametocytes) is reported as “inhibited P. falciparum exflagellation”; in [7] (10 µM, 24 h exposure of mature gametocytes, listed as Pyronaridine), “inhibited exflagellation totally”.
